# Experiments:
# tubulin = experiment: Tubulin polymerization inhibition assay (Cytoskeleton kit);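 for all read-outs here: Cell-free tubulin polymerization read by fluorescent reporter enhancement over a 30 min reaction, with the compound-free kit control taken as 100% activity and inhibition relative to it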; details: for Tub %inh / Tub. enzyme inhibition assay %inhibition: 30 min; for Tub %inh: YB-EGY run; for Tub K.Activity: EC = 120, YB-EGY run; for IC50: read-out: Tubulin inhibition IC50 ± SEM, triplicate for each tested concentration; for Tub. enzyme inhibition assay %inhibition: codes 522-537 run; for Tub. enzyme inhibition assay K. Activity: control = 120, codes 522-537 run; for Tub. (IC50) IC50±SD: supplement raw data, lab codes
# [1] = Cell viability assay (MTT), normal cells; format: cell-based; details: human, MCF-10A normal mammary gland epithelial cells, four-day incubation
# Protocol: The impact of novel compounds 10a-o and 13a-e on cell viability was examined using the MCF-10A (human mammary gland epithelial) normal cell line. The MTT test was employed to assess the cell viability of the novel compounds after a four-day incubation with MCF-10A cells ([El-Sherief et al., 2019]; [Ramadan et al., 2020]).
# The effects of compounds 10a-o and 13a-e on cell viability were assessed using the human mammary gland epithelial normal cell line (MCF-10A). The MTT assay assessed the cell viability of compounds 10a-o and 13a-e following a four-day incubation with MCF-10A cells ([El-Sherief et al., 2019]; [Ramadan et al., 2020]). Check Supplementary Appendix A for additional information.
# 4.2. Biological evaluation
# 4.2.1 Cell Viability assay (MTT assay)
# MTT assay was performed to investigate the effect of the synthesized compounds on mammary epithelial cells (MCF-10A). The cells were propagated in medium consisting of Ham's F-12 medium/ Dulbecco's modified Eagle's medium (DMEM) (1:1) supplemented with 10% foetal calf serum, 2 mM glutamine, insulin (10 μg/mL), hydrocortisone (500 ng/mL) and epidermal growth factor (20 ng/mL). Trypsin ethylenediamine tetra acetic acid (EDTA) was used to passage the cells after every 2-3 days. 96-well flat-bottomed cell culture plates were used to seed the cells at a density of 10^4 cells mL-1. The medium was aspirated from all the wells of culture plates after 24 h followed by the addition of synthesized compounds (in 200 μL medium to yield a final concentration of 0.1% (v/v) dimethyl sulfoxide) into individual wells of the plates.
# Four wells were designated to a single compound. The plates were allowed to incubate at 37°C for 96 h. Afterwards, the medium was aspirated and 3-[4,5-dimethylthiazol-2-yl]-2,5-diphenyltetrazolium bromide (MTT) (0.4 mg/mL) in medium was added to each well and subsequently incubated for 3 h. The medium was aspirated and 150 μL dimethyl sulfoxide (DMSO) was added to each well. The plates were vortexed followed by the measurement of absorbance at 540 nm on a microplate reader. The results were presented as inhibition (%) of proliferation in contrast to controls comprising 0.1%
SMILES,Tub %inh (tubulin; conc 0.1 (unit not given)) [%],Tub K.Activity (tubulin; conc 0.1 (unit not given)),Tub %inh (tubulin; conc 1 (unit not given)) [%],Tub K.Activity (tubulin; conc 1 (unit not given)),Tub %inh (tubulin; conc 10 (unit not given)) [%],Tub K.Activity (tubulin; conc 10 (unit not given)),Tub %inh (tubulin; conc 50 (unit not given)) [%],IC50 (tubulin) [µM],"viability at 96 h, 50 µM [1] [%]",Tub. enzyme inhibition assay %inhibition (tubulin; conc 0.01 (unit not given)) [%],Tub. enzyme inhibition assay K. Activity (tubulin; conc 0.01 (unit not given)),Tub. enzyme inhibition assay %inhibition (tubulin; conc 0.1 (unit not given)) [%],Tub. enzyme inhibition assay K. Activity (tubulin; conc 0.1 (unit not given)),Tub. enzyme inhibition assay %inhibition (tubulin; conc 1 (unit not given)) [%],Tub. enzyme inhibition assay K. Activity (tubulin; conc 1 (unit not given)),Tub. enzyme inhibition assay %inhibition (tubulin; conc 10 (unit not given)) [%],Tub. enzyme inhibition assay K. Activity (tubulin; conc 10 (unit not given)),Tub. enzyme inhibition assay %inhibition (tubulin; conc 100 (unit not given)) [%],Tub. enzyme inhibition assay K. Activity (tubulin; conc 100 (unit not given)),Tub. (IC50) IC50±SD (tubulin) [µg/mL],further results
"Cc1nc(SCC(=O)Nc2nc(-c3ccccc3)cs2)sc1C(=O)/C=C/c1ccc(Cl)cc1 [Compound 10b, (E)-2-((5-(3-(4-chlorophenyl)acryloyl)-4-methylthiazol-2-yl)thio)-N-(4-phenylthiazol-2-yl)acetamide]",5.79,113.05,23.9,91.287,41.4,70.334,64.5,8.75 ± 0.27,91,–,–,–,–,–,–,–,–,–,–,–,Tub K.Activity (tubulin; conc 50 (unit not given)): 42.629; Tub %inh (tubulin; conc 100 (unit not given)): 88.7%; Tub K.Activity (tubulin; conc 100 (unit not given)): 13.577
"Cc1nc(SCC(=O)Nc2nc(-c3ccccc3)cs2)sc1C(=O)/C=C/c1ccc(F)cc1 [Compound 10c, (E)-2-((5-(3-(4-fluorophenyl)acryloyl)-4-methylthiazol-2-yl)thio)-N-(4-phenylthiazol-2-yl)acetamide]",4.47,114.64,12.4,105.09,25.6,89.245,52.5,22.5 ± 0.69,89,–,–,–,–,–,–,–,–,–,–,–,Tub K.Activity (tubulin; conc 50 (unit not given)): 56.999; Tub %inh (tubulin; conc 100 (unit not given)): 83%; Tub K.Activity (tubulin; conc 100 (unit not given)): 20.424
"COc1ccc(/C=C/C(=O)c2sc(SCC(=O)Nc3nc(-c4ccccc4)cs3)nc2C)cc1 [Compound 10e, (E)-2-((5-(3-(4-methoxyphenyl)acryloyl)-4-methylthiazol-2-yl)thio)-N-(4-phenylthiazol-2-yl)acetamide]",–,–,–,–,–,–,–,15.3 ± 0.49,92,2.57,116.92,9.6,108.49,20.4,95.5,46,64.791,83.3,19.996,7.77 ± 0.25,–
"Cc1nc(SCC(=O)Nc2nc(-c3ccc(Cl)cc3)cs2)sc1C(=O)/C=C/c1ccc(Cl)cc1 [Compound 10g, (E)-2-((5-(3-(4-chlorophenyl)acryloyl)-4-methylthiazol-2-yl)thio)-N-(4-(4-chlorophenyl)thiazol-2-yl)acetamide]",–,–,–,–,–,–,–,59.4 ± 3.78,89,0.65,119.22,5.24,113.71,15.3,101.63,32.3,81.206,70.5,35.432,32.45 ± 2.07,–
"Cc1ccc(/C=C/C(=O)c2sc(SCC(=O)Nc3nc(-c4ccc(Cl)cc4)cs3)nc2C)cc1 [Compound 10i, (E)-N-(4-(4-chlorophenyl)thiazol-2-yl)-2-((4-methyl-5-(3-(p-tolyl)acryloyl)thiazol-2-yl)thio)acetamide]",–,–,–,–,–,–,–,33.5 ± 1.21,91,1.51,118.18,5.52,113.37,19.3,96.892,41.3,70.409,72.1,33.442,17.63 ± 0.64,–

# Reference: publication PMC12040969, “Design, synthesis, in silico studies, and apoptotic antiproliferative activity of novel thiazole-2-acetamide derivatives as tubulin polymerization inhibitors” (Frontiers in Chemistry, 2025)
